Test system: HEK293-STF3A cells
Assay: STF3A assay (luciferase reporter)
Type: cell-based, Human
Details: Homo sapiens, 24 h, 1 day of treatment
Description: HEK293-STF cell line was modified from Human embryonic kidney cell line HEK293 transfected with the STF reporter. HEK293-STF3A cell line was further modified from HEK293-STF cell line to express Wnt3A. This cell line was used to identify compounds that regulate either early or late signaling components of the Wnt pathway. These two cell lines were obtained from David Virshup's laboratory, Duke-NUS. L-Wnt3A (ATCC, #CRL-2647) cell line was used for providing Wnt3A conditioned media. The three cell lines were grown in DMEM with 10% FBS incubated in 37° C. with 5% CO2.
2×10^4 HEK293-STF3A cells in 75 μl culture media were seeded in each well of white 96 well plates (Greiner #655098) and incubated overnight at 37° C. 25 μl serially diluted compound was added to the cells to give final concentration of 50 μM to 1.5 nM. After 1 day of treatment, 100 μl of Steady-Glo Luciferase Assay reagent (#E2520, Promega) was added to each well and incubated for 10 minutes at room temperature. Luminescence was measured using Tecan Safire2 plate reader.

`Cc1cc2n(n1)CCCN2C(=O)CCC(=O)Nc1cnc(-c2ccccc2)cn1` [Compound 47, 4-(2-methyl-6,7-dihydropyrazolo[1,5-a]pyrimidin-4(5H)-yl)-4-oxo-N-(5-phenylpyrazin-2-yl)butanamide] and `Cc1cc2n(n1)CCCN2C(=O)CCC(=O)Nc1cnc(-c2cncc(F)c2)cn1` [Compound 122, N-(5-(5-fluoropyridin-3-yl)pyrazin-2-yl)-4-(2-methyl-6,7-dihydropyrazolo[1,5-a]pyrimidin-4(5H)-yl)-4-oxobutanamide] cannot be ordered by IC50: < 100 nM for the first, < 100 nM for the second.

`COc1cccc(-c2ccc(NC(=O)CCC(=O)N3CCCn4nc(C)cc43)cc2)c1` [Compound 62, N-(3′-methoxy-[1,1′-biphenyl]-4-yl)-4-(2-methyl-6,7-dihydropyrazolo[1,5-a]pyrimidin-4(5H)-yl)-4-oxobutanamide] and `COc1ccc(-c2ccc(NC(=O)CCC(=O)N3CCCn4nc(C)cc43)cc2)cc1` [Compound 63, N-(4′-methoxy-[1,1′-biphenyl]-4-yl)-4-(2-methyl-6,7-dihydropyrazolo[1,5-a]pyrimidin-4(5H)-yl)-4-oxobutanamide] cannot be ordered by IC50: < 100 nM for the first, < 100 nM for the second.

`Cc1cc2n(n1)CCCN2C(=O)CCC(=O)Nc1ccc(-c2cccc(F)c2)nc1` [Compound 84, N-(6-(3-fluorophenyl)pyridin-3-yl)-4-(2-methyl-6,7-dihydropyrazolo[1,5-a]pyrimidin-4(5H)-yl)-4-oxobutanamide] and `Cc1cc2n(n1)CCCN2C(=O)CCC(=O)Nc1cc(-c2cccc(F)c2)no1` [Compound 8, N-(3-(3-fluorophenyl)isoxazol-5-yl)-4-(2-methyl-6,7-dihydropyrazolo[1,5-a]pyrimidin-4(5H)-yl)-4-oxobutanamide] cannot be ordered by IC50: < 100 nM for the first, < 100 nM for the second.

Going from `Cc1cc2n(n1)CCCN2C(=O)CCC(=O)Nc1ccc(-c2cccnn2)cc1` [Compound 37, 4-{2-methyl-5H,6H,7H-pyrazolo[1,5-a]pyrimidin-4-yl}-4-oxo-N-[4-(pyridazin-3-yl)phenyl]butanamide] to `Cc1cc2n(n1)CCCN2C(=O)CCC(=O)Nc1ccc(-c2ccncn2)cc1` [Compound 38, 4-(2-methyl-6,7-dihydropyrazolo[1,5-a]pyrimidin-4(5H)-yl)-4-oxo-N-(4-(pyrimidin-4-yl)phenyl)butanamide], the IC50 rises from < 1000 nM to > 10000 nM.

`CC(=O)N1CCN(c2ccc(NC(=O)CCC(=O)N3CCCn4nc(C)cc43)cc2)CC1` [Compound 78, N-(4-(4-acetylpiperazin-1-yl)phenyl)-4-(2-methyl-6,7-dihydropyrazolo[1,5-a]pyrimidin-4(5H)-yl)-4-oxobutanamide] and `Cc1cc2n(n1)CCCN2C(=O)CCC(=O)NC1CCN(c2ccccc2)CC1` [Compound 81, 4-(2-methyl-6,7-dihydropyrazolo[1,5-a]pyrimidin-4(5H)-yl)-4-oxo-N-(1-phenylpiperidin-4-yl)butanamide] cannot be ordered by IC50: > 10000 nM for the first, > 10000 nM for the second.

First: Cc1cc2n(n1)CCCN2C(=O)CCC(=O)Nc1cc(-c2cccc(Cl)c2)nn1C [Compound 21, N-(3-(3-chlorophenyl)-1-methyl-1H-pyrazol-5-yl)-4-(2-methyl-6,7-dihydropyrazolo[1,5-a]pyrimidin-4(5H)-yl)-4-oxobutanamide]
Second: Cc1cc2n(n1)CCCN2C(=O)CCC(=O)Nc1cc(-c2ccc(Cl)cc2)no1 [Compound 5, N-(3-(4-chlorophenyl)isoxazol-5-yl)-4-(2-methyl-6,7-dihydropyrazolo[1,5-a]pyrimidin-4(5H)-yl)-4-oxobutanamide]
The IC50 of the first is higher: > 10000 nM for the first, < 100 nM for the second.

`Cc1cc2n(n1)CCCN2CCCCNc1cc(-c2cccc(Cl)c2)no1` [Compound 131, 3-(3-chlorophenyl)-N-(4-(2-methyl-6,7-dihydropyrazolo[1,5-a]pyrimidin-4(5H)-yl)butyl)isoxazol-5-amine] and `Cc1cc2n(n1)CCCN2C(=O)CCC(=O)Nc1cc(-c2ccc(Cl)cn2)no1` [Compound 17, N-(3-(5-chloropyridin-2-yl)isoxazol-5-yl)-4-(2-methyl-6,7-dihydropyrazolo[1,5-a]pyrimidin-4(5H)-yl)-4-oxobutanamide] cannot be ordered by IC50: > 10000 nM for the first, > 10000 nM for the second.

`Cc1cc2n(n1)CCCN2C(=O)CCC(=O)Nc1ccc(-c2ccc(F)cc2)nn1` [Compound 101, N-(6-(4-fluorophenyl)pyridazin-3-yl)-4-(2-methyl-6,7-dihydropyrazolo[1,5-a]pyrimidin-4(5H)-yl)-4-oxobutanamide] and `Cc1cc2n(n1)CCCN2C(=O)CCC(=O)Nc1ccc(-c2cncc(Cl)c2)nn1` [Compound 102, N-(6-(5-chloropyridin-3-yl)pyridazin-3-yl)-4-(2-methyl-6,7-dihydropyrazolo[1,5-a]pyrimidin-4(5H)-yl)-4-oxobutanamide] cannot be ordered by IC50: < 100 nM for the first, < 100 nM for the second.

`Cc1cc2n(n1)CCCN2C(=O)CC(C)C(=O)Nc1ccc(-c2cccnc2)nn1` (centres unmarked) [Compound 155] and `Cc1cc2n(n1)CCCN2C(=O)CCC(=O)Nc1ccc(-c2cncnc2)nc1` [Compound 154, 4-(2-methyl-6,7-dihydropyrazolo[1,5-a]pyrimidin-4(5H)-yl)-4-oxo-N-(6-(pyrimidin-5-yl)pyridin-3-yl)butanamide] cannot be ordered by IC50: < 100 nM for the first, < 1000 nM for the second.

First: Cc1cc2n(n1)CCCN2C(=O)CCC(=O)Nc1ccc(-c2ncccn2)cc1 [Compound 40, 4-{2-methyl-5H,6H,7H-pyrazolo[1,5-a]pyrimidin-4-yl}-4-oxo-N-[4-(pyrimidin-2-yl)phenyl]butanamide]
Second: Cc1cc2n(n1)CCCN2C(=O)CCC(=O)Nc1ccc(-c2ccc(C(F)(F)F)cc2)cc1 [Compound 14, 4-(2-methyl-6,7-dihydropyrazolo[1,5-a]pyrimidin-4(5H)-yl)-4-oxo-N-(4′-(trifluoromethyl)-[1,1′-biphenyl]-4-yl)butanamide]
The IC50 of the first is lower: < 1000 nM for the first, > 10000 nM for the second.

`Cc1cc2n(n1)CCCN2C(=O)CCC(=O)Nc1ccc(-c2cc(F)ccn2)cn1` [Compound 95, N-(4-fluoro-2,3′-bipyridin-6′-yl)-4-(2-methyl-6,7-dihydropyrazolo[1,5-a]pyrimidin-4(5H)-yl)-4-oxobutanamide] and `Cc1cc2n(n1)CCCN2C(=O)CCC(=O)Nc1ccc(-c2cncc(F)c2)cn1` [Compound 115, N-(5′-fluoro-[3,3′-bipyridin]-6-yl)-4-(2-methyl-6,7-dihydropyrazolo[1,5-a]pyrimidin-4(5H)-yl)-4-oxobutanamide] cannot be ordered by IC50: < 100 nM for the first, < 100 nM for the second.

`Cc1cc2n(n1)CC(C)CN2C(=O)CCC(=O)Nc1ccc(-c2cncc(F)c2)nn1` (centres unmarked) [Compound 167, 4-(2,6-dimethyl-6,7-dihydropyrazolo[1,5-a]pyrimidin-4(5H)-yl)-N-(6-(5-fluoropyridin-3-yl)pyridazin-3-yl)-4-oxobutanamide] and `Cc1cc2n(n1)CC(C)CN2C(=O)CCC(=O)Nc1ccc(-c2cccnc2)nc1` (centres unmarked) [Compound 140, N-(2,3′-bipyridin-5-yl)-4-(2,6-dimethyl-6,7-dihydropyrazolo[1,5-a]pyrimidin-4(5H)-yl)-4-oxobutanamide] cannot be ordered by IC50: < 100 nM for the first, < 100 nM for the second.

`Cc1cncc(-c2ncc(NC(=O)CCC(=O)N3CCCn4nc(C)cc43)cc2C)c1` [Compound 168, N-(3,5′-dimethyl-[2,3′-bipyridin]-5-yl)-4-(2-methyl-6,7-dihydropyrazolo[1,5-a]pyrimidin-4(5H)-yl)-4-oxobutanamide] and `Cc1cc2n(n1)CCCN2C(=O)CCC(=O)Nc1ccc(-c2cncc(N)c2)nc1` [Compound 112, N-(5′-amino-2,3′-bipyridin-5-yl)-4-(2-methyl-6,7-dihydropyrazolo[1,5-a]pyrimidin-4(5H)-yl)-4-oxobutanamide] cannot be ordered by IC50: < 1000 nM for the first, < 1000 nM for the second.

Source: patent US10189842B2 (Agency for Science, Technology and Research, priority 2013, dated 2019)
